{"source": "patent US20250221981A1", "about": "“MAT2A INHIBITOR AND/OR TSG101 INHIBITOR FOR USE IN ANTIVIRAL THERAPY” (CAMBRIDGE ENTERPRISE LIMITED, priority 2022, published 2025)", "key": {"[1]": {"tested_on": "BKPyV", "assay": "Fluorescence focus unit (FFU) assay of infectious BKPyV from treated RPTE/TERT1 cells", "type": "cell-based, BK polyomavirus", "details": "added 1 hr post infection, MOI 1", "procedure": "(B) Effect of PF-9366 on viral replication: Cells were infected with BKPyV (MOI 1) in media containing appropriate drug concentrations. At 1 hpi infectious media was removed, cells were washed and fresh media with appropriate drug concentrations was added. At 48 hpi cells were harvested and infectious BKPyV was measured by FFU assay. n=3.\n(§1) Cells were treated with MAT2A inhibitors at 1 hr post infection and were harvested at 48 hr post infection at MOI 1. (A) Total infectious BKPyV synthesis expressed as fold change to DMSO control (FFU titre assay). (B) Total viral protein expression (LTAg and VP1) was analysed by western blot. Tubulin was used as loading control. All error bars represent SEM. Two sample paired T-test was used to determine significance (*p<0.05; **p<0.01; ***p<0.001, ****p<0.0001), all numerical data shown were obtained over 2 independent experiments.\n(§2) RPTE/hTERT cells were treated with inhibitors at 1 hr post infection (PI), infected at MOI 1. (A) Viral growth curves using FFU titre assay in drug treated and untreated cells infected with BKPyV at MOI 1 for 48 hr PI, 72 hr PI and 96 hr PI. (B) Total viral protein expression (LTAg and VP1) from drug treatments and untreated control was analysed by western blot with samples harvested at 48 hr PI and 96 hr PI. Tubulin was used as loading control. All error bars represent SEM. All numerical data shown were obtained over 2 independent experiments.\nThe ability for PF-9366 to inhibit the production of infectious virus was then investigated. RPTE/TERT1 cells were once again treated with a concentration range of PF-9366 or DMSO as a control prior to infection, and as before, infected with BKPyV (MOI 1) then washed and media replaced at 1 hpi. At 48 hpi total virus was harvested from each condition and an FFU assay was conducted to determine BKPyV virus titre (FIG. 3B).\nFor BKPyV infections, RPTE/TERT1, RPTE/TERT1-Cas9 or RPTE/TERT1 MAT2A KO cells were infected with BKPyV at either a multiplicity of infection (MOI) of 5 for growth curves or an MOI of 3 or 1 for all other experiments, diluted in appropriate medium. At 1 hour post infection (hpi) medium was removed, cells were washed twice with phosphate-buffered saline (PBS), and fresh medium was added with or without inhibitors. At 24, 48, 72 or 96 hpi cells were either harvested for western blot, RT qPCR or virus titre by FFU assay, or fixed for immunofluorescence analysis.\nFFU assays were used to determine the concentration of infectious BKPyV in experimental samples. RPTE/TERT1 cells were infected with sample dilutions, fixed at 48 hpi in 3% formaldehyde, and immunostained for VP1 expression as described in Evans et al. (Open Biol. 2015 August; 5 (8): 150041).\nExample 1: PF-9366 (Sigma-Aldrich) and AG-270 (kindly supplied by Astra Zeneca) were diluted in 100% DMSO. Cells were drug treated at a range of concentrations in REBM supplemented with BulletKit (Lonza) for 3 hours prior to infection. Cells were infected with BK-Dunlop in media and appropriate drug dilution. At 1 hpi infectious media was removed, cells gently washed with PBS and media containing appropriate drug dilutions was added. At 48 hpi cells were either fixed in 3% formaldehyde for microscopy, or harvested by scraping up into fresh drug-free media.\nTSG101 inhibitor Ilaprazole (Sigma-Aldrich) was diluted in 100% DMSO. Cells were treated at a range of inhibitor concentrations and combinations, in appropriate media for the cell type used, for either 3 hours prior to infection (HSV-1, Alphavirus and Flavivirus infections) or 1 hour post infection (BKPyV infection)."}, "[2]": {"tested_on": "BKPyV", "assay": "Western blot of BKPyV viral protein expression (LTAg, VP1) in RPTE/TERT1 cells", "type": "cell-based, BK polyomavirus", "details": "MOI 1", "procedure": "(C)(i) Effect of PF-9366 on viral early and late gene and cellular MAT2A expression: Cells were infected with BKPyV (MOI 3) in media containing appropriate drug concentrations. At 1 hpi infectious media was removed, cells were washed and fresh media with appropriate drug concentrations was added. Cells were harvested at 48 hpi and a western blot performed. Membranes were blotted for viral late gene VP1, LTAg, cellular MAT2A/MAT1A, and tubulin as a loading control.\n(iii) Viral gene expression is modulated in response to PF-9366: The density of BKPyV VP1 and LTAg expression were measured, normalized to tubulin loading control (LiCor Image Studio Software), n=3.\nas §1, §2\nIt has previously been noted by Quinlan et al. (Nat Chem Biol. 2017 13 (7): 785-792) that treatment with PF-9366 can increase MAT2A expression as a compensatory mechanism within cells. To investigate this, cells were once again treated with a range of PF-9366 for 3 hours prior to infection (or DMSO treated). Cells were infected with BKPyV (MOI 3), washed at 1 hpi, and fresh drug treated media was added. At 48 hpi cells were harvested and protein expression was analysed by western blotting (FIG. 3C(i)). MAT2A expression was quantified from band intensities, normalised to the tubulin loading control and plotted (FIG. 3C(ii), n=3). A clear increase in the cellular expression of MAT2A was observed, up to an 8-fold increase at 10 μM PF-9366. Western blot analysis was also conducted on early viral gene (LTAg) and late viral gene (VP1) expression (FIG. 3C(iii), n=3).\nCell lysate preparation and western blots were performed as described in Ren et al. (J Gen Virol. 2012 February; 93 (Pt 2): 319-329). Primary antibodies used were ab53977 (VP1), PAb416 (LTAg), sc-166452 (MAT2A/1A), ab110226 (VP16), sc-53070 (ICP0), anti-Zika E Protein, and either anti-GAPDH or anti-tubulin as a loading control, followed by IRDye 680LT-, or IRDye 800CW-conjugated secondary antibodies. Imaging was performed using the LI-COR Odyssey Infrared Imaging system. Quantification was performed using LI-COR Image Studio Software."}, "[3]": {"tested_on": "RPTE/hTERT cells", "assay": "Cell viability assay, CellTiter-Blue fluorescence", "procedure": "RPTE/hTERT cells were treated with MAT2A inhibitors at increasing concentrations for 48 hrs and assayed for cell viability using CellTiter-Blue fluorescence. Experiments were conducted using biological triplicates.\nExperiment was conducted using biological triplicates.\nCell viability was assessed using the Cell-Titer-Blue assay (Promega), following manufacturers guidelines."}, "[4]": {"details": "125 nM to 1 μM, dose dependent, 48 hr post infection"}}}
{"smiles": "CN(C)c1nc(=O)n(-c2ccccc2)c2cc(Cl)ccc12", "note": "[AZ28]", "values": [{"measurement": "inhibition of BKPyV replication (total infectious BKPyV, FFU titre)", "setting": "[1]; 125 nM, 250 nM, 500 nM and 1 μM, 48 hr post infection", "value": "significant dose dependent inhibition"}, {"measurement": "early viral protein (LTAg) levels (western blot)", "setting": "[2]; [4]", "value": "reduced"}, {"measurement": "late viral protein (VP1) levels (western blot)", "setting": "[2]; [4]", "value": "reduced"}, {"measurement": "effect on cell viability and metabolism", "setting": "[3]; at concentrations inhibiting BKPyV replication, 48 hrs", "value": "little effect"}]}
{"smiles": "COc1ccnc(C[S+]([O-])c2nc3cc(-n4cccc4)ccc3[nH]2)c1C", "note": "(stereo not shown) [Ilaprazole]", "values": [{"measurement": "BKPyV viral replication (FFU titre)", "setting": "[1]; Ilaprazole alone", "value": "significantly inhibit"}, {"measurement": "BKPyV protein expression (LTAg and VP1, western blot)", "setting": "[2]; Ilaprazole alone, 48 and 96 hr PI", "value": "significantly inhibit"}, {"measurement": "effect on cell viability", "setting": "[3]; Ilaprazole alone, every 48 hr until 144 hr", "value": "little effect"}]}
